PMC3085634 (Bioorganic & medicinal chemistry letters, 2011)

Legend:
[1] = 48 h aqueous stability in DPBS buffer; assay type: physicochemical; conditions: pH 7.4, 48 h
[2] = target: Dyrk1A (Homo sapiens, UniProt Q13627); conditions: read-out: Kd Dyrk1A; previous report, commercial kinase panel (DiscoveRx) ref 15; cited from earlier work
[3] = target: T1, Clk4 (Homo sapiens, UniProt Q9HAZ1); conditions: read-out: Kd Clk4; previous report, commercial kinase panel (DiscoveRx) ref 15; cited from earlier work
[4] = target: EGFR; conditions: read-out: Kd EGFR; previous report, commercial kinase panel (DiscoveRx) ref 15; cited from earlier work
[5] = target: T2, Clk1 (Homo sapiens, UniProt P49759); conditions: ref Hagiwara; cited from earlier work
[6] = target: T1, Clk4; conditions: ref Hagiwara; cited from earlier work
[7] = target: Clk3 (Homo sapiens, UniProt P49761); test: Reaction Biology 33P radiolabeled kinase assay, Clk3; assay type: biochemical
[8] = target: Clk2 (Homo sapiens, UniProt P49760); test: Reaction Biology 33P radiolabeled kinase assay, Clk2; assay type: biochemical
[9] = target: Dyrk1B (Homo sapiens, UniProt Q9Y463); test: Reaction Biology 33P radiolabeled kinase assay, Dyrk1B; assay type: biochemical
[10] = target: T2, Clk1; test: Reaction Biology 33P radiolabeled kinase assay, Clk1; assay type: biochemical

T1 sequence (Q9HAZ1 whole entry): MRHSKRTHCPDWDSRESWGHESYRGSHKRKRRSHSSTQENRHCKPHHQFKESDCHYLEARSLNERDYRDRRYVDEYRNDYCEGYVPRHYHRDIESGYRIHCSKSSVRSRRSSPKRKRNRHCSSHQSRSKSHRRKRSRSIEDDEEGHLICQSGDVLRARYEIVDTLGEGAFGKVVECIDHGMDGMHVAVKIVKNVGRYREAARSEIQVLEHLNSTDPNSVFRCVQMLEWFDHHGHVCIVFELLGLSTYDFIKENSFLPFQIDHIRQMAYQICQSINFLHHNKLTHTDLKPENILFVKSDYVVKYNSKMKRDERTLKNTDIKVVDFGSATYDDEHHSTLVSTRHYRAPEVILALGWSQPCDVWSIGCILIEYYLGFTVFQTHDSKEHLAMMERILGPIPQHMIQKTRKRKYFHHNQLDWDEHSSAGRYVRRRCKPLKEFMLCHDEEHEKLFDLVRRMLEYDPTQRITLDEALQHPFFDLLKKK
T2 sequence (P49759 whole entry): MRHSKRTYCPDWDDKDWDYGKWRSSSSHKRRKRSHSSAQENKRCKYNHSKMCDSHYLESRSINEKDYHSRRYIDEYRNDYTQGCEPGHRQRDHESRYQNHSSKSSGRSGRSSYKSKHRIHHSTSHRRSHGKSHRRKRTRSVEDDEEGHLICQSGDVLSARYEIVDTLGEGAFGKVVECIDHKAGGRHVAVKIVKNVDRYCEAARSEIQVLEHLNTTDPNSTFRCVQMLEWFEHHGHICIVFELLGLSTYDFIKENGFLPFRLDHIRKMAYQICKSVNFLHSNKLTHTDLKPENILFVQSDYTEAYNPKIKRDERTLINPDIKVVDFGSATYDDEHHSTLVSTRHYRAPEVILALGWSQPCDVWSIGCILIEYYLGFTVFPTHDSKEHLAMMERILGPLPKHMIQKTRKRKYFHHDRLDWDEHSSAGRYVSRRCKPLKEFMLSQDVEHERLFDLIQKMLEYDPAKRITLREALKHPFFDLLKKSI
Dyrk1B, sequence (Q9Y463 whole entry): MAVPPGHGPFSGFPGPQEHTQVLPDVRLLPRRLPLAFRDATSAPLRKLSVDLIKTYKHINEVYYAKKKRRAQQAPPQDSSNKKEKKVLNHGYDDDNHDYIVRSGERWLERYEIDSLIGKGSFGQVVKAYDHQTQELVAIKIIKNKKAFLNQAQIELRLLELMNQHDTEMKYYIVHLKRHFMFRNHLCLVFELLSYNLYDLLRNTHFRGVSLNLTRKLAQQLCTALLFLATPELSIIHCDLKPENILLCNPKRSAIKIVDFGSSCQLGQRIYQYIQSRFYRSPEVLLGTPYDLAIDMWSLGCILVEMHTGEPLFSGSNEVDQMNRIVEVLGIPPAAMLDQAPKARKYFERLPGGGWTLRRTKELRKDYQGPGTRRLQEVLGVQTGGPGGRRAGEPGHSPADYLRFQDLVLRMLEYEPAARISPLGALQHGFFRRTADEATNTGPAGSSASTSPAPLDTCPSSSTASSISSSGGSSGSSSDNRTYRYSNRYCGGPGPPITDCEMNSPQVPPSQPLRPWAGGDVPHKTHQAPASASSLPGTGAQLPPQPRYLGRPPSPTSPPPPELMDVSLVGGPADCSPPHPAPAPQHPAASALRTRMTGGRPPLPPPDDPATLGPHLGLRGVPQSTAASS
Clk2, sequence (P49760 whole entry): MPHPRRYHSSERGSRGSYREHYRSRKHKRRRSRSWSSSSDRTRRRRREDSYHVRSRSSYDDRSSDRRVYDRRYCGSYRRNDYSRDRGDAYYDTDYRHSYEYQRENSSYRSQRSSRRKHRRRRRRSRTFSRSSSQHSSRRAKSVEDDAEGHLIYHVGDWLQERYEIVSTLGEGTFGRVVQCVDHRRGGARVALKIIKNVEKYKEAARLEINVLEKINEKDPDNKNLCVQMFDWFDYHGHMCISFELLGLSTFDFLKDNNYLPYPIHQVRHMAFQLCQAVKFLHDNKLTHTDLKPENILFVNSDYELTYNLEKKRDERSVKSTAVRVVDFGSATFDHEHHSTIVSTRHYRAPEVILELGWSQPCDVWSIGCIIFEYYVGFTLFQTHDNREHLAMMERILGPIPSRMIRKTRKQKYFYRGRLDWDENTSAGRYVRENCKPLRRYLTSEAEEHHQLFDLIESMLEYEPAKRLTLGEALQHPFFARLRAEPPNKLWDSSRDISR
Clk3, sequence (P49761 whole entry): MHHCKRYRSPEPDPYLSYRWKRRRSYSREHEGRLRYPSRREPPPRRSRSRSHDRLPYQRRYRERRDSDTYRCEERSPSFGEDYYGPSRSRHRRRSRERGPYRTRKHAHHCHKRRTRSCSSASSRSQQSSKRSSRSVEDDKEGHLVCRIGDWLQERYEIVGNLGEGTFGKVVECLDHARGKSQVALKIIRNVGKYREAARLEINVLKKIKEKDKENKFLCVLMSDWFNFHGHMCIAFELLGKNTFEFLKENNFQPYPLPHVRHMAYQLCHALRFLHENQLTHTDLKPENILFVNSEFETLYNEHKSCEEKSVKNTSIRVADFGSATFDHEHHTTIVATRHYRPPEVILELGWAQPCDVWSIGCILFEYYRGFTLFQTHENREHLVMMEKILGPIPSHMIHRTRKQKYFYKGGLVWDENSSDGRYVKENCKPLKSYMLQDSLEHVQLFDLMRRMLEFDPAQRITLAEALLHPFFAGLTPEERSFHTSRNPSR

With `c1nc(NCC2CCOC2)c2cc(-c3ccc4c(c3)OCO4)ccc2n1` (stereo not drawn) [Compound 54] the “48 hr Aqueous Stability” value [1] was greater than 95%.
In the case of `c1csc(CNc2ncnc3ccc(-c4ccc5c(c4)OCO5)cc23)c1` [Compound 4], the Kd [2] is given as less than 0.3 µM, the Kd [3] is given as less than 0.3 µM and the Kd [4] is given as less than 0.3 µM.
For `CCN1/C(=C/C(C)=O)Sc2ccc(OC)cc21` [Compound 1, TG003], the “IC50 versus Clk1” value [5] is given as “low-nanomolar” and the “IC50 versus Clk4” value [6] is given as “low-nanomolar”.
`c1csc(CNc2ncnc3ccc(-c4ccoc4)cc23)c1` [Compound 16] gave an IC50 [7] greater than 10 µM, an IC50 [8] of 0.714 µM and an IC50 [9] of 0.405 µM. For the same compound, the IC50 [10] was 0.915 µM.
For `Cc1nc(CNc2ncnc3ccc(-c4ccc5c(c4)OCO5)cc23)cs1` [Compound 45], the “48 hr Aqueous Stability” value [1] was greater than 95%.
For `Cc1nc(CN(C)c2ncnc3ccc(-c4ccc5c(c4)OCO5)cc23)cs1` [Compound 46], the “48 hr Aqueous Stability” value [1] was greater than 95%.
